These results are taken from patent publication US11319526B2, “Methods and compositions for making antibodies and antibody derivatives with reduced core fucosylation” (Seagen Inc., priority 2008, dated 2022).

Molecules are shown by their SMILES. Where two headings read alike, the source gives them in different places.

The assay has as its system antibody core fucosylation in CHO DG44 cell line producing h1F6. Briefly: Effect of fucose analogs on antibody core fucosylation (h1F6 from CHO DG44 culture). It counts as cell-based, Chinese hamster. The conditions noted are these: day 5; for inhibition at 50 µM: 50 μM fucose analog; for inhibition at 1000 µM / Inhibition at 1 mM: 1 mM fucose analog. As to the method:
Media was supplemented with insulin like growth factor (IGF), penicillin, streptomycin and either 1 mM or 50 μM of the fucose analog (prepared as described supra). On day 5 post inoculation, the culture was centrifuged at 13000 RPM for 5 minutes to pellet cells; antibodies were then purified from supernatant.
Antibody purification was performed by applying the conditioned media to protein A resin pre-equilibrated with 1× phosphate buffered saline (PBS), pH 7.4. After washing resin with 20 resin bed volumes of 1×PBS, antibodies were eluted with 5 resin bed volumes of Immunopure IgG elution buffer (Pierce Biotechnology, Rockford, Ill.). A 10% volume of 1M tris pH 8.0 was added to neutralize the eluted fraction.

Where [1] appears, read: Cricetulus griseus, CHO-DG44, 120 h, Table 1, inhibition of core fucosylation of h1F6, read-out: Inhibition at 50 μM.
The mark [2] stands for this setting: Cricetulus griseus, CHO-DG44, 120 h, Table 1, ND = non-core fucosylated antibody not detected due to poor antibody production or inhibition of cell growth.
[3] abbreviates: Cricetulus griseus, CHO-DG44, 120 h, Table 2, read-out: Inhibition at 50 μM.
Where [4] appears, read: Cricetulus griseus, CHO-DG44, 120 h, Table 2.
Where [5] appears, read: Table 1, inhibition of core fucosylation of h1F6.
Where [6] appears, read: Table 1, ND = non-core fucosylated antibody not detected due to poor antibody production or inhibition of cell growth.

The inhibition is the percentage by which the read-out fell short of the control. For the compound `CC(=O)OC1OC(C#N)[C@@H](OC(C)=O)[C@@H](OC(C)=O)[C@@H]1OC(C)=O` (stereo partly drawn) [5-cyanoarabinopyranose tetraacetate], under setting [1], the inhibition at 50 µM came out at 20%.
For `C#C[C@H](OC(C)=O)[C@H]1OC(OC)[C@@H](OC(C)=O)[C@@H]1OC(C)=O` (stereo partly drawn) [1-methyl-2,3,4-triacetyl alkynyl fucose, (2R,3R,4S)-2-((S)-1-acetoxyprop-2-ynyl)-5-methoxy-tetrahydrofuran-3,4-diyl Diacetate], the inhibition at 50 µM under setting [1] was 68%. The inhibition at 1000 µM under setting [2] was above 80%.
For `CC(=O)O[C@@H]1[C@H](C)O[C@@H](OC(C)=O)C(F)(F)[C@@H]1OC(C)=O` [(2S,4R,5R,6S)-3,3-difluoro-6-methyl-tetrahydro-2H-pyran-2,4,5-triyl Triacetate], the inhibition at 50 µM under setting [3] was found to be 0%. This compound showed an inhibition at 1000 µM under setting [4] of 64%.
With `CC(=O)OC1O[C@@H](C(F)F)[C@@H](OC(C)=O)[C@@H](OC(C)=O)[C@@H]1OC(C)=O` (stereo partly drawn) [6,6-difluorofucose tetraacetate, (3S,4R,5S,6R)-6-(difluoromethyl)tetrahydro-2H-pyran-2,3,4,5-tetrayl Tetraacetate], under setting [3], the inhibition at 50 µM was above 80%. Under setting [4], this compound returned an inhibition at 1000 µM above 80%.
Turning to `C[C@H](O)[C@@H](O)[C@@H](O)[C@H](F)C=O` [2-deoxy-2-fluorofucose], the inhibition at 50 µM under setting [3] is above 80%. Besides, under setting [4], the inhibition at 1000 µM is above 80%.
Regarding `CC(=O)O[C@H]1C[C@H](OC(C)=O)[C@H](OC(C)=O)[C@H](C)O1` [(2S,4S,5R,6S)-6-methyl-tetrahydro-2H-pyran-2,4,5-triyl Triacetate], the inhibition at 50 µM under setting [3] turned out to be 0%. Besides, under setting [4], 1000 µM produced 36% inhibition.
Turning to `C#C[C@@H]1OC(OC(=O)c2cccnc2)[C@@H](OC(=O)c2cccnc2)[C@H](OC(=O)c2cccnc2)[C@@H]1OC(=O)c1cccnc1` (stereo partly drawn) [Alkynyl fucose pemicotinate, (3S,4R,5R,6S)-6-ethynyl-tetrahydro-2H-pyran-2,3,4,5-tetrayl Tetranicotinate], the inhibition at 50 µM under setting [1] was above 80%. Further, the inhibition at 1000 µM under setting [2] is above 80%.
For `CC(=O)OC(C#N)[C@H]1OC(OC(C)=O)[C@@H](OC(C)=O)[C@@H]1OC(C)=O` (stereo partly drawn) [5-cyanoarabinofuranose tetraacetate], the inhibition at 50 µM under setting [1] lay in the range of 5 to 10%.
Regarding `CC(=O)OC1O[C@@H](C)[C@@H](OC(C)=O)[C@@H](OC(C)=O)[C@@H]1Cl` (stereo partly drawn) [2-deoxy-2-chlorofucose triacetate, L-2-deoxy-2-chlorofucopyranose-1,3,4-triacetate], the inhibition at 50 µM under setting [3] was determined as 17%. Under setting [4], this compound returned an inhibition at 1000 µM above 80%.
Regarding `CC(=O)O[C@@H]1[C@H](C)O[C@H](OC(C)=O)C(F)(F)[C@@H]1OC(C)=O` [(2R,4R,5R,6S)-3,3-difluoro-6-methyl-tetrahydro-2H-pyran-2,4,5-triyl Triacetate], under setting [3], the inhibition at 50 µM was 0%. The same compound came in with an inhibition at 1000 µM under setting [4] of 75%.
In general, Inhibition refers to the change of the read-out against control, counted positive when it falls. Low readings indicate a weak effect, high ones a strong effect. Regarding `C=CC1OC(OC(C)=O)C(OC(C)=O)C(OC(C)=O)C1OC(C)=O` (stereo not drawn) [5-vinyl fucose tetraacetate, 5-ethylenylarabinose tetraacetate], under setting [5], the “inhibition at 50 µM” value is on record as around 0%. Further, the “Inhibition at 1 mM” value under setting [6] is around 4%.
Consider `C#C[C@@H]1OC(OC(=O)C(C)C)[C@@H](OC(=O)C(C)C)[C@H](OC(=O)C(C)C)[C@@H]1OC(=O)C(C)C` (stereo partly drawn) [Alkynyl fucose perisobutanoate, (3S,4R,5R,6S)-6-ethynyl-tetrahydro-2H-pyran-2,3,4,5-tetrayl tetrakis(2-methylpropanoate)], for which the inhibition at 50 µM under setting [1] was above 80%. Further, under setting [2], the inhibition at 1000 µM is above 80%.
With `CC(=O)O[C@H]([C@H](OC(C)=O)[C@H](CC#N)OC(C)=O)[C@@H](C=O)OC(C)=O` [6-cyano fucose tetraacetate, 6-cyanofucose tetraacetate], the inhibition at 50 µM under setting [1] came to 30%. Under setting [2], this compound showed an inhibition at 1000 µM above 80%.
`CC(=O)OC1O[C@@H](C)[C@@H](OC(C)=O)[C@@H](OC(C)=O)[C@@H]1F` (stereo partly drawn) [2-deoxy-2-fluorofucose peracetate, (3S,4R,5R,6S)-3-fluoro-6-methyl-tetrahydro-2H-pyran-2,4,5-triyl Triacetate]: the inhibition at 50 µM under setting [3] is above 80%. Under setting [4], this compound came in with an inhibition at 1000 µM above 80%.
Regarding `C#C[C@@H]1OC(OC(=O)CCOCCOC)[C@@H](OC(=O)CCOCCOC)[C@H](OC(=O)CCOCCOC)[C@@H]1OC(=O)CCOCCOC` (stereo partly drawn) [Alkynyl fucose per-PEG ester, (3S,4R,5R,6S)-6-ethynyl-tetrahydro-2H-pyran-2,3,4,5-tetrayl tetrakis(3-(2-methoxyethoxy)propanoate)], under setting [1], the inhibition at 50 µM was above 80%. The inhibition at 1000 µM under setting [2] was above 80%.
With `CC(=O)O[C@H]([C@H](OC(C)=O)[C@H](CCl)OC(C)=O)[C@@H](C=O)OC(C)=O` [6-chloro-fucose tetraacetate, 6-chlorofucose tetraacetate], the inhibition at 50 µM under setting [1] is 20%. Also, the inhibition at 1000 µM under setting [2] is 20 to 30%.
For `CC(=O)O[C@H]([C@H](OC(C)=O)[C@H](CI)OC(C)=O)[C@@H](C=O)OC(C)=O` [6-iodo-fucose tetraacetate, 6-iodofucose tetraacetate], the inhibition at 50 µM under setting [1] is 3%. Besides, the inhibition at 1000 µM under setting [2] came to 30%.
With `CC(=O)OC1C(C)OC(F)C(F)C1OC(C)=O` (stereo not drawn) [1,2-difluoro-1,2-didexoy fucose peracetate], under “Table 2”, the “inhibition at 50 µM” value is above 80% and the “Inhibition at 1 mM” value is above 80%.
On to `CC#CC(OC(C)=O)[C@@H](OC(C)=O)[C@@H](OC(C)=O)[C@@H](C=O)OC(C)=O` (stereo partly drawn) [5-propynyl fucose tetraacetate, 5-propynylarabinose tetraacetate], for which, under setting [1], the inhibition at 50 µM is 50%. Under setting [2], this compound displayed an inhibition at 1000 µM above 80%.
Take `CC(=O)OC1O[C@@H]([C@]2(C)CO2)[C@@H](OC(C)=O)[C@@H](OC(C)=O)[C@@H]1OC(C)=O` (stereo partly drawn) [5-methyloxiran-arabinose tetraacetate, (3S,4R,5S,6R)-6-((S)-2-methyloxiran-2-yl)-tetrahydro-2H-pyran-2,3,4,5-tetrayl tetraacetate]: under setting [1], the inhibition at 50 µM is around 0%. In addition, the inhibition at 1000 µM under setting [2] lay within 35 to 40%.
With `C=C=C[C@@H]1OC(OC(C)=O)[C@@H](OC(C)=O)[C@H](OC(C)=O)[C@@H]1OC(C)=O` (stereo partly drawn) [Allene, (3S,4R,5R,6S)-6-(propa-1,2-dienyl)-tetrahydro-2H-pyran-2,3,4,5-tetrayl Tetraacetate], the inhibition at 50 µM under setting [3] was determined as 23%. Under setting [4], this compound came in with an inhibition at 1000 µM of 34%.
`C#C[C@@H]1OC(OC(=O)CC)[C@@H](OC(=O)CC)[C@H](OC(=O)CC)[C@@H]1OC(=O)CC` (stereo partly drawn) [Alkynyl fucose tetrapropanonate, 5-ethynylarabinose tetrapropropanoate]: the “inhibition at 50 µM” value under setting [5] was above 80%. In addition, under setting [6], the “Inhibition at 1 mM” value was above 80%.
As for `C#CC(O)[C@@H](O)[C@@H](O)[C@H](O)C=O` (stereo partly drawn) [Alkynyl fucose, 5-ethynylarabinose], the inhibition at 50 µM under setting [1] was above 80%.
On to `CC(=O)OC1O[C@@H](COCc2ccccc2)[C@@H](OC(C)=O)[C@@H](OC(C)=O)[C@@H]1OC(C)=O` (stereo partly drawn) [5-Benzyloxy fucose peracetate, (3S,4R,5R,6S)-6-(benzyloxymethyl)tetrahydro-2H-pyran-2,3,4,5-tetrayl tetraacetate], for which, under setting [3], the inhibition at 50 µM was 0%. Further, under setting [4], the inhibition at 1000 µM worked out at 75%.
On to `C#C[C@H]1OC(OC(=O)c2ccncc2)[C@@H](OC(=O)c2ccncc2)[C@H](OC(=O)c2ccncc2)[C@@H]1OC(=O)c1ccncc1` (stereo partly drawn) [Alkynyl fucose perisonicotinate, (3S,4R,5R,6R)-6-ethynyl-tetrahydro-2H-pyran-2,3,4,5-tetrayl Tetraisonicotinate], for which, under setting [1], the inhibition at 50 µM was above 80%. The compound further displayed an inhibition at 1000 µM under setting [2] above 80%.
On to `C#CC1OC(OC(=O)C(C)(C)C)C(OC(=O)C(C)(C)C)C(OC(=O)C(C)(C)C)C1O` (stereo not drawn) [Alkynyl fucose 1,2,3-(trimethylacetate), 5-ethynylarabinose 1,2,3-(trimethylacetate)], for which the “inhibition at 50 µM” value under setting [5] is around 0%.
Regarding `C#CC(OC(=O)CCCCC)[C@@H](OC(=O)CCCCC)[C@@H](OC(=O)CCCCC)[C@@H](C=O)OC(=O)CCCCC` (stereo partly drawn) [Alkynyl fucose tetra-n-hexanoate, 5-ethynylarabinose tetrahexanoate], the inhibition at 50 µM under setting [1] is above 80%. Under setting [2], the inhibition at 1000 µM is above 80%.
As to `C#CC1OC(OC(=O)C(C)(C)C)C(O)C(OC(=O)C(C)(C)C)C1O` (stereo not drawn) [Alkynyl fucose di(trimethylacetate), 5-ethynylarabinose 1,3-(trimethylacetate)], the “inhibition at 50 µM” value under setting [5] is listed as above 80%.
